Where “and” joins values, the source holds several entries; their conditions need not be identical. Equal entries are not always repeated.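 How tested: cells in 96-well plates exposed to compound for 48 hours at five concentrations. GI50 is the concentration that inhibits growth by half. At the TGI there is no net growth.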
Tests used:
Assay in all cases: DTP human tumour cell line panel, 48 h
NCI/ADR-RES ovarian = test system: NCI/ADR-RES ovarian
RXF 393 renal = test system: RXF 393 renal
SK-MEL-28 melanoma = test system: SK-MEL-28 melanoma
HT29 colon = test system: HT29 colon
MALME-3M melanoma = test system: MALME-3M melanoma
COLO 205 colon = test system: COLO 205 colon
MDA-MB-435 = test system: MDA-MB-435
M14 melanoma = test system: M14 melanoma
HOP-92 NSCLC = test system: HOP-92 NSCLC
A549 NSCLC = test system: A549 NSCLC
UACC-62 melanoma = test system: UACC-62 melanoma
KM12 colon = test system: KM12 colon
NCI-H23 lung = test system: NCI-H23 lung
SNB-75 CNS = test system: SNB-75 CNS
NCI-H226 lung = test system: NCI-H226 lung
OVCAR-8 ovarian = test system: OVCAR-8 ovarian
SF-295 CNS = test system: SF-295 CNS
NCI-H460 lung = test system: NCI-H460 lung
OVCAR-4 ovarian = test system: OVCAR-4 ovarian
U251 CNS = test system: U251 CNS
UACC-257 melanoma = test system: UACC-257 melanoma
DU-145 prostate = test system: DU-145 prostate
MOLT-4 leukemia = test system: MOLT-4 leukemia
OVCAR-3 ovarian = test system: OVCAR-3 ovarian
UO-31 renal = test system: UO-31 renal
IGROV1 ovarian = test system: IGROV1 ovarian
CAKI-1 renal = test system: CAKI-1 renal
SNB-19 CNS = test system: SNB-19 CNS
786-0 renal = test system: 786-0 renal
HCC-2998 colon = test system: HCC-2998 colon
NCI-H522 lung = test system: NCI-H522 lung
MCF7 breast = test system: MCF7 breast
SK-OV-3 ovarian = test system: SK-OV-3 ovarian
SW-620 colon = test system: SW-620 colon
SF-539 CNS = test system: SF-539 CNS
TK-10 renal = test system: TK-10 renal
SK-MEL-2 melanoma = test system: SK-MEL-2 melanoma
RPMI-8226 leukemia = test system: RPMI-8226 leukemia
OVCAR-5 ovarian = test system: OVCAR-5 ovarian
ACHN renal = test system: ACHN renal
LOX IMVI melanoma = test system: LOX IMVI melanoma
HCT-116 colon = test system: HCT-116 colon
T-47D breast = test system: T-47D breast
HOP-62 NSCLC = test system: HOP-62 NSCLC
SF-268 CNS = test system: SF-268 CNS
A498 renal = test system: A498 renal
BT-549 breast = test system: BT-549 breast
HCT-15 colon = test system: HCT-15 colon
EKVX NSCLC = test system: EKVX NSCLC
MDA-MB-231 breast = test system: MDA-MB-231 breast
SN12C renal = test system: SN12C renal
PC-3 prostate = test system: PC-3 prostate
SK-MEL-5 melanoma = test system: SK-MEL-5 melanoma
HS 578T breast = test system: HS 578T breast

## COCCNCCc1cccc(Nc2ncc3c(n2)-c2ccccc2C(c2ccccc2F)C3)c1 (stereo not drawn)
NCI/ADR-RES ovarian
  GI50: 1.79 µM and 1.76 µM
  TGI: 3.43 µM and 3.45 µM
RXF 393 renal
  GI50: 1.11 µM and 1.24 µM
  TGI: 2.39 µM and 2.59 µM
SK-MEL-28 melanoma
  GI50: 1.6 µM and 1.76 µM
  TGI: 2.97 µM and 3.18 µM
HT29 colon
  GI50: 1.12 µM and 1.31 µM
  TGI: 2.36 µM and 2.68 µM
MALME-3M melanoma
  GI50: 1.77 µM and 1.87 µM
  TGI: 3.41 µM and 3.54 µM
COLO 205 colon
  GI50: 1.88 µM and 1.92 µM
  TGI: 3.67 µM and 3.63 µM
MDA-MB-435
  GI50: 1.75 µM and 1.82 µM
  TGI: 3.25 µM and 3.32 µM
M14 melanoma
  GI50: 1.56 µM and 1.94 µM
  TGI: 3.06 µM and 3.78 µM
HOP-92 NSCLC
  GI50: 1.02 µM and 1.24 µM
  TGI: 2.27 µM and 2.65 µM
A549 NSCLC
  GI50: 1.78 µM and 1.88 µM
  TGI: 3.33 µM and 3.51 µM
UACC-62 melanoma
  GI50: 1.72 µM and 1.76 µM
  TGI: 3.12 µM and 3.16 µM
KM12 colon
  GI50: 1.77 µM and 1.79 µM
  TGI: 3.43 µM and 3.37 µM
NCI-H23 lung
  GI50: 1.65 µM and 1.75 µM
  TGI: 3.1 µM and 3.32 µM
SNB-75 CNS
  GI50: 1.17 µM and 0.727 µM
  TGI: 2.48 µM and 2.09 µM
NCI-H226 lung
  GI50: 1.31 µM and 1.8 µM
  TGI: 2.94 µM and 3.67 µM
OVCAR-8 ovarian
  GI50: 1.79 µM and 1.87 µM
  TGI: 3.38 µM and 3.9 µM
SF-295 CNS
  GI50: 1.72 µM and 1.61 µM
  TGI: 3.11 µM and 2.99 µM
NCI-H460 lung
  GI50: 1.33 µM and 1.7 µM
  TGI: 3.08 µM and 3.47 µM
OVCAR-4 ovarian
  GI50: 1.34 µM and 1.72 µM
  TGI: 2.74 µM and 3.18 µM
U251 CNS
  GI50: 1.24 µM and 1.82 µM
  TGI: 2.57 µM and 3.28 µM
UACC-257 melanoma
  GI50: 2.01 µM and 2.15 µM
  TGI: 3.54 µM and 4.05 µM
DU-145 prostate
  GI50: 1.53 µM and 1.62 µM
  TGI: 2.98 µM and 3.04 µM
MOLT-4 leukemia
  GI50: 1.18 µM
  TGI: 4.15 µM
OVCAR-3 ovarian
  GI50: 1.76 µM and 1.6 µM
  TGI: 3.48 µM and 3.1 µM
UO-31 renal
  GI50: 0.685 µM and 1.29 µM
  TGI: 2.06 µM and 2.57 µM
IGROV1 ovarian
  GI50: 1 µM and 1.21 µM
  TGI: 2.38 µM and 2.75 µM
CAKI-1 renal
  GI50: 1.27 µM and 1.26 µM
  TGI: 2.54 µM
SNB-19 CNS
  GI50: 1.75 µM and 1.81 µM
  TGI: 3.18 µM and 3.28 µM
786-0 renal
  GI50: 1.43 µM and 1.76 µM
  TGI: 2.91 µM and 3.3 µM
HCC-2998 colon
  GI50: 1.77 µM and 2.08 µM
  TGI: 3.28 µM and 3.65 µM
NCI-H522 lung
  GI50: 1.53 µM and 1.52 µM
  TGI: 2.95 µM
MCF7 breast
  GI50: 1.58 µM and 1.78 µM
  TGI: 3.4 µM and 3.69 µM
SK-OV-3 ovarian
  GI50: 1.71 µM and 2.45 µM
  TGI: 3.14 µM and 6.34 µM
SW-620 colon
  GI50: 2.4 µM
  TGI: 4.63 µM
SF-539 CNS
  GI50: 1.32 µM and 1.5 µM
  TGI: 2.62 µM and 2.86 µM
TK-10 renal
  GI50: 1.38 µM and 1.6 µM
  TGI: 2.74 µM and 2.98 µM
SK-MEL-2 melanoma
  GI50: 1.71 µM and 1.94 µM
  TGI: 3.19 µM and 3.44 µM
RPMI-8226 leukemia
  GI50: 1.52 µM and 1.74 µM
  TGI: 3.7 µM and 4.23 µM
OVCAR-5 ovarian
  GI50: 1.42 µM and 1.57 µM
  TGI: 2.76 µM and 3.02 µM
ACHN renal
  GI50: 1.03 µM and 1.05 µM
  TGI: 2.2 µM and 2.23 µM
LOX IMVI melanoma
  GI50: 1.25 µM and 1.23 µM
  TGI: 2.56 µM and 2.5 µM
HCT-116 colon
  GI50: 1.21 µM and 1.66 µM
  TGI: 2.6 µM and 3.12 µM
T-47D breast
  GI50: 1.76 µM and 1.82 µM
  TGI: 3.6 µM and 3.92 µM
HOP-62 NSCLC
  GI50: 1.6 µM and 1.71 µM
  TGI: 3.11 µM and 3.3 µM
SF-268 CNS
  GI50: 1.44 µM and 1.64 µM
  TGI: 3.07 µM and 3.19 µM
A498 renal
  GI50: 0.345 µM and 1.61 µM
  TGI: 1.75 µM and 3.14 µM
BT-549 breast
  GI50: 1.55 µM and 7.79 µM
  TGI: 2.95 µM and 25.6 µM
HCT-15 colon
  GI50: 1.19 µM and 1.26 µM
  TGI: 2.56 µM and 2.6 µM
EKVX NSCLC
  GI50: 1.63 µM and 1.92 µM
  TGI: 3.13 µM and 3.51 µM
MDA-MB-231 breast
  GI50: 1.67 µM and 1.45 µM
  TGI: 3.11 µM and 2.84 µM
SN12C renal
  GI50: 1.32 µM and 1.04 µM
  TGI: 2.7 µM and 2.34 µM
PC-3 prostate
  GI50: 1.49 µM and 1.39 µM
  TGI: 2.89 µM and 2.86 µM
SK-MEL-5 melanoma
  GI50: 1.65 µM
  TGI: 3.04 µM and 3.03 µM
HS 578T breast
  GI50: 1.15 µM and 1.27 µM
  TGI: 3.46 µM and 3.79 µM
